Measurements published in ChEMBL document CHEMBL1150324, “Support vector machines classification of hERG liabilities based on atom types” (Bioorg Med Chem, 2008).

What was measured:
[1] = target: Voltage-gated inwardly rectifying potassium channel KCNH2 (Homo sapiens, UniProt Q12809); assay: (§1) Inhibition of human ERG expressed in CHO cells by whole cell patch clamp technique; settings: for pIC50: human
hERG (KCNH2) = hERG (KCNH2) (Homo sapiens, UniProt Q12809); assay: as §1; settings: human
[2] = CHO cells that express human ERG

Voltage-gated inwardly rectifying potassium channel KCNH2, sequence (Q12809 whole entry): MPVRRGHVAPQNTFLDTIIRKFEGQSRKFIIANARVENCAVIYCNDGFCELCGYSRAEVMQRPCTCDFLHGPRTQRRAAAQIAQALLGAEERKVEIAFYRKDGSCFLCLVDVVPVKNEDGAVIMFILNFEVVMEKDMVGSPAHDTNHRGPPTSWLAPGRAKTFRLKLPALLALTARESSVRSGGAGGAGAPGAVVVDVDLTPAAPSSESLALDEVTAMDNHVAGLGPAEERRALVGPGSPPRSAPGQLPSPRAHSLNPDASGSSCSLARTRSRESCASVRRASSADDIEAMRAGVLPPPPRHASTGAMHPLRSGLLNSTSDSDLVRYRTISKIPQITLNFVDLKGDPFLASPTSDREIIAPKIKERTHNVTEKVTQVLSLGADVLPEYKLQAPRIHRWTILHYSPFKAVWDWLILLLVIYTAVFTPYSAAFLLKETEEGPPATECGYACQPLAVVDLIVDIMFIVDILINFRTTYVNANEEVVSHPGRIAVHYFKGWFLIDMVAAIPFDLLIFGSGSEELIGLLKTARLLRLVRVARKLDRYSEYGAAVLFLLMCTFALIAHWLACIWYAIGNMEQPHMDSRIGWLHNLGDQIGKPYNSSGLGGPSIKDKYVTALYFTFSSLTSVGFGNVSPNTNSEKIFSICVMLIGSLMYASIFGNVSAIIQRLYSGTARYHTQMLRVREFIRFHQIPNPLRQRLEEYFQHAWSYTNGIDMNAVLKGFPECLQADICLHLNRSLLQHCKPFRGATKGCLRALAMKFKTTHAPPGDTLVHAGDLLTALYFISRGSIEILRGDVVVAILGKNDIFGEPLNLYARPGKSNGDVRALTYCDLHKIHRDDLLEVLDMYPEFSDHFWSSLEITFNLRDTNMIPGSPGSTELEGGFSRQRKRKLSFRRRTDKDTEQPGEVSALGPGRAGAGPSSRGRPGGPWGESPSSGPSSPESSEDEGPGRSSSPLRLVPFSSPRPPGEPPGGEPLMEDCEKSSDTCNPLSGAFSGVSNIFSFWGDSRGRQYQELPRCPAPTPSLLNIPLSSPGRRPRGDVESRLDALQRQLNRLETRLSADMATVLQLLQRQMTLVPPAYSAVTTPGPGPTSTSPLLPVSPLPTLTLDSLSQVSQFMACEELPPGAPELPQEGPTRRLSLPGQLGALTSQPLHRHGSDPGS
hERG (KCNH2), sequence (Q12809 whole entry): as above

Compound: COc1ccc(C2CCN(CC[C@H]3CCOc4ccccc43)CC2)cc1OC
- pIC50 ([1]; cho): 6.7

Compound: CC[C@H]1OC(=O)[C@H](C)[C@@H](O[C@H]2C[C@@](C)(OC)[C@@H](O)[C@H](C)O2)[C@H](C)[C@@H](O[C@@H]2O[C@H](C)C[C@H](N(C)C)[C@H]2O)[C@](C)(OC)C[C@@H](C)C(=O)[C@H](C)[C@@H](O)[C@]1(C)O [CLARITHROMYCIN]
- pIC50 ([1]; cho): 4.23

Compound: Oc1ccc(CCN2CCC(Nc3nc4ccccc4n3Cc3ccc(F)cc3)CC2)cc1 [DESMETHEYLASTEMIZOLE]
- IC50 [1]: 0.001 µM

Compound: COc1c(N2CCNC(C)C2)c(F)cc2c(=O)c(C(=O)O)cn(C3CC3)c12 (configuration not stated) [GATIFLOXACIN]
- IC50 [1]: 129 µM

Compound: O=C(OC1CC2CC3CC(C1)N2CC3O)c1c[nH]c2ccccc12 (configuration not stated) [MDL-74156]
- IC50 [1]: 5.89 µM

Compound: CN(c1nccc(=O)[nH]1)C1CCN(c2nc3ccccc3n2Cc2ccc(F)cc2)CC1 [MIZOLASTINE]
- pIC50 ([1]; cho): 6.36

Compound: CN1CCC[C@H]1c1cccnc1 [NICOTINE]
- pIC50 ([1]; cho): 3.61

Compound: CCOC(=O)C1=C(C)NC(C)=C(C(=O)OC)C1c1cccc([N+](=O)[O-])c1 (configuration not stated) [NITRENDIPINE]
- IC50 (hERG (KCNH2); [2]): 10 µM

Compound: Cc1cc2c(s1)Nc1ccccc1N=C2N1CCN(C)CC1 [OLANZAPINE]
- pIC50 ([1]; cho): 6.74

Compound: C[C@@H]1CN(c2c(F)c(N)c3c(=O)c(C(=O)O)cn(C4CC4)c3c2F)C[C@H](C)N1 [SPARFLOXACIN]
- pIC50 [1, 2]: 4.74

Compound: COc1ccc(C2CCN(CC[C@H]3CCOc4ccccc43)CC2)cc1OC [TERIKALANT]
- IC50 (hERG (KCNH2); cho): 0.251 µM

Compound: COc1ccc(C(=O)N2CCN(c3ccc4c(c3)CCC(=O)N4)CC2)cc1OC [VESNARINONE]
- pIC50 [1, 2]: 5.96
